From patent US20170114021A1, “HALOGEN-SUBSTITUTED COMPOUNDS” (priority 2014, published 2017)
Like-named read-outs stand apart in the source and are kept apart here.

Tests used:
[1] = log P by HPLC on reversed-phase column (C18), EEC Directive 79/831 Annex V.A8; assay type: physicochemical
Experimental: ^a) Unless indicated otherwise, the following method was used to determine the log P values and masses: The determination of the given log P values was carried out in accordance with EEC Directive 79/831 Annex V.A8 by HPLC (High Performance Liquid Chromatography) on a reversed-phase column (C18). Agilent 1100 LC system; 50*4.6 Zorbax Eclipse Plus C18 1.8 micron; mobile phase A: acetonitrile (0.1% formic acid); mobile phase B: water (0.09% formic acid); linear gradient from 10% acetonitrile to 95% acetonitrile in 4.25 min, then 95% acetonitrile for a further 1.25 min; oven temperature 55° C.; flow rate: 2.0 ml/min. Mass detection is effected by means of an Agilend MSD system.

Phaedon cochleariae = Phaedon cochleariae spray test (PHAECO); assay type: in vivo; details: Chinese cabbage leaf discs, after 7 days
Experimental: Phaedon cochleariae—Spray Test (PHAECO) Solvent: 78.0 parts by weight of acetone • • 1.5 parts by weight of dimethylformamide Emulsifier: alkylaryl polyglycol ether
(§1) To produce a suitable preparation of active compound, 1 part by weight of active compound is dissolved using the specified parts by weight of solvent and made up with water containing an emulsifier concentration of 1000 ppm until the desired concentration is attained. To produce further test concentrations, the preparation is diluted with emulsifier-containing water.
After 7 days, efficacy in % is determined. 100% means that all the beetle larvae have been killed; 0% means that no beetle larvae have been killed.

Spodoptera frugiperda = Spodoptera frugiperda spray test (SPODFR); assay type: in vivo; details: application rate 100 g/ha; maize leaf discs; after 7 days
Experimental: Spodoptera frugiperda—Spray Test (SPODFR)
Solvent: 78.0 parts by weight of acetone • • 1.5 parts by weight of dimethylformamide Emulsifier: alkylaryl polyglycol ether
as §1
Leaf discs of maize (Zea mays) are sprayed with an active compound preparation of the desired concentration and, after drying, populated with caterpillars of the armyworm (Spodoptera frugiperda).
After 7 days, efficacy in % is determined. 100% means that all the caterpillars have been killed; 0% means that no caterpillars have been killed.

Boophilus microplus = Boophilus microplus injection test (BOOPMI Inj); assay type: in vivo; details: application rate 20 μg/animal; injection into abdomen
Experimental: Boophilus microplus—Injection Test (BOOPMI Inj) Solvent: dimethyl sulphoxide
To produce a suitable preparation of active compound, 10 mg of active compound are mixed with 0.5 ml of solvent and the concentrate is diluted with solvent to the desired concentration.
1 μl of the active compound solution is injected into the abdomen of 5 engorged adult female cattle ticks (Boophilus microplus). The animals are transferred into dishes and kept in a climate-controlled room.
The activity is assessed after the desired time by laying of fertile eggs. Eggs which are not visibly fertile are stored in a climate-controlled cabinet until the larvae hatch after about 42 days. An efficacy of 100% means that none of the ticks has laid any fertile eggs; 0% means that all the eggs are fertile.

Ctenocephalides felis = Ctenocephalides felis oral test (CTECFE); assay type: in vivo; details: application rate 100 ppm in citrated cattle blood; after 2 days
Experimental: Ctenocephalides felis—Oral Test (CTECFE) Solvent: dimethyl sulphoxide
To produce a suitable preparation of active compound, 10 mg of active compound are mixed with 0.5 ml of dimethyl sulphoxide. Dilution with citrated cattle blood gives the desired concentration.
About 20 unfed adult cat fleas (Ctenocephalides felis) are placed into a chamber which is closed at the top and bottom with gauze. A metal cylinder whose bottom end is closed with parafilm is placed onto the chamber. The cylinder contains the blood/active compound preparation, which can be imbibed by the fleas through the parafilm membrane.
After 2 days, the kill in % is determined. 100% means that all of the fleas have been killed; 0% means that none of the fleas have been killed.

Tetranychus urticae = Tetranychus urticae spray test, OP-resistant (TETRUR); assay type: in vivo; details: application rate 100 g/ha; bean leaf discs; after 6 days
Experimental: Tetranychus urticae—Spray Test, OP-Resistant (TETRUR) Solvent: 78.0 parts by weight of acetone • • 1.5 parts by weight of dimethylformamide Emulsifier: alkylaryl polyglycol ether
as §1
Discs of bean leaves (Phaseolus vulgaris) infested by all stages of the greenhouse red spider mite (Tetranychus urticae) are sprayed with an active ingredient formulation of the desired concentration.
After 6 days, efficacy in % is determined. 100% means that all the spider mites have been killed; 0% means that no spider mites have been killed.

Musca domestica = Musca domestica test (MUSCDO); assay type: in vivo; details: application rate 100 ppm; adult houseflies; after 2 days
Experimental: Musca domestica-Test (MUSCDO) Solvent: dimethyl sulphoxide
(§2) To produce a suitable preparation of active compound, 10 mg of active compound are mixed with 0.5 ml of dimethyl sulphoxide, and the concentrate is diluted with water to the desired concentration.
Vessels containing a sponge treated with sugar solution and the active compound preparation of the desired concentration are populated with 10 adult houseflies (Musca domestica).
After 2 days, the kill in % is determined. 100% means that all of the flies have been killed; 0% means that none of the flies have been killed.

Lucilia cuprina = Lucilia cuprina test (LUCICU); assay type: in vivo; details: application rate 100 ppm; L1 larvae; after 2 days
Experimental: Lucilia cuprina-Test (LUCICU) Solvent: dimethyl sulphoxide
as §2
About 20 L1 larvae of the Australian sheep blowfly (Lucilia cuprina) are transferred into a test vessel containing minced horsemeat and the active compound preparation of the desired concentration.
After 2 days, the kill in % is determined. 100% means that all the larvae have been killed; 0% means that no larvae have been killed.

[2] = reversed-phase C18 HPLC column, HPLC, C18, acetonitrile/water with formic acid gradient, read-out: log P

Row | Structure (SMILES) | chromatographic logP [1, 2] | also measured
1 | Cn1cc(C(F)(F)F)c(C(F)(F)C(F)(F)F)n1 [1-methyl-3-(1,1,2,2,2-pentafluoroethyl)-4-(trifluoromethyl)pyrazole] |  | chromatographic logP [1]: 3.23
2 | Cn1nc(C(F)(F)C(F)(F)F)c(C(F)(F)F)c1B1OC(C)(C)C(C)(C)O1 [1-methyl-3-(1,1,2,2,2-pentafluoroethyl)-5-(4,4,5,5-tetramethyl-1,3,2-dioxaborolan-2-yl)-4-(trifluoromethyl)pyrazole] | 5.05 | 
3 | O=C(NC1CC1)c1cc(I)ccc1Cl [2-chloro-N-cyclopropyl-5-iodobenzamide] | 2.13 | 
4 | [N-]=[N+]=Nc1ccc(Cl)c(C(=O)NC2CC2)c1 [5-azido-2-chloro-N-cyclopropylbenzamide] | 1.8 | 
5 | C#Cc1c(C(F)(F)F)c(C(F)(F)C(F)(F)F)nn1C [5-ethynyl-1-methyl-3-(pentafluoroethyl)-4-(trifluoromethyl)-1H-pyrazole] | 3.74 | 
6 | CON(C)C(=O)c1c(C(F)(F)F)c(C(F)(F)C(F)(F)F)nn1C [N-methoxy-N,1-dimethyl-3-(pentafluoroethyl)-4-(trifluoromethyl)-1H-pyrazole-5-carboxamide] | 3.22 | 
7 | O=C(NC1CC1)c1cc(B(O)O)ccc1Cl [[4-chloro-3-(cyclopropylcarbamoyl)phenyl]boronic acid] | 0.96 | 

Now from value to compound, other results behind:

Row | chromatographic logP [1, 2] | Structure (SMILES) | also measured
8 | 3.61 | CC(=O)c1c(C(F)(F)F)c(C(F)(F)C(F)(F)F)nn1C [1-[1-methyl-3-(pentafluoroethyl)-4-(trifluoromethyl)-1H-pyrazol-5-yl]ethanone] | 
9 | 3.03 | Cn1nc(C(F)(F)C(F)(F)F)c(C(F)(F)F)c1-c1cc[nH]n1 [2′-methyl-5′-(pentafluoroethyl)-4′-(trifluoromethyl)-1H,2′H-3,3′-bipyrazole] | 
10 | 2.78 | Cn1nc(C(F)(F)C(F)(F)F)c(C(F)(F)F)c1-c1c[nH]nn1 [4-[1-methyl-3-(pentafluoroethyl)-4-(trifluoromethyl)-1H-pyrazol-5-yl]-1H-1,2,3-triazole] | 
11 | 2.36 | O=C(NC1CC1)c1cc(-n2cc(Br)cn2)ccc1Cl [5-(4-bromopyrazol-1-yl)-2-chloro-N-cyclopropylbenzamide] | 
12 | 2.11 | Cn1nc(C(F)(F)C(F)(F)F)c(C(F)(F)F)c1-c1nn[nH]n1 [5-[1-methyl-3-(pentafluoroethyl)-4-(trifluoromethyl)-1H-pyrazol-5-yl]-2H-tetrazole] | 
13 | 2.77 | CN(C)/C=C/C(=O)c1c(C(F)(F)F)c(C(F)(F)C(F)(F)F)nn1C [(2E)-3-(dimethylamino)-1-[1-methyl-3-(pentafluoroethyl)-4-(trifluoromethyl)-1H-pyrazol-5-yl]prop-2-en-1-one] | 
14 | 4.05 | Cn1nc(C(F)(F)C(F)(F)F)c(C(F)(F)F)c1-c1ccn(-c2ccc(Cl)c(C(=O)NC3CC3)c2)n1 [Id-1, 2-chloro-N-cyclopropyl-5-[2′-methyl-5′-(pentafluoroethyl)-4′-(trifluoromethyl)-1H,2′H-3,3′-bipyrazol-1-yl]benzamide] | efficacy (Phaedon cochleariae; application rate 100 g/ha): 100%; efficacy (Spodoptera frugiperda): 100%
15 | 4.17 | Cn1nc(C(F)(F)C(F)(F)F)c(C(F)(F)F)c1-c1cnn(-c2ccc(Cl)c(C(=O)NC3CC3)c2)n1 [If-1, 2-chloro-N-cyclopropyl-5-{4-[1-methyl-3-(pentafluoroethyl)-4-(trifluoromethyl)-1H-pyrazol-5-yl]-2H-1,2,3-triazol-2-yl}benzamide] | efficacy (laying of fertile eggs) (Boophilus microplus): 100%; efficacy (kill) (Ctenocephalides felis): 100%; efficacy (Tetranychus urticae): 100%; efficacy (Phaedon cochleariae; application rate 100 g/ha): 100%; efficacy (kill) (Musca domestica): 100%; efficacy (Spodoptera frugiperda): 100%; efficacy (kill) (Lucilia cuprina): 100%
16 | 4.06 | Cn1nc(C(F)(F)C(F)(F)F)c(C(F)(F)F)c1-c1nnn(-c2ccc(Cl)c(C(=O)NC3CC3)c2)n1 [Ih-1, 2-chloro-N-cyclopropyl-5-{5-[1-methyl-3-(pentafluoroethyl)-4-(trifluoromethyl)-1H-pyrazol-5-yl]-2H-tetrazol-2-yl}benzamide] | efficacy (Tetranychus urticae): 90%; efficacy (Phaedon cochleariae; application rate 20 g/ha): 100%; efficacy (Spodoptera frugiperda): 100%
